The text below walks through data of EP0427799B1, “METHOD AND COMPOUNDS FOR AICA RIBOSIDE DELIVERY AND FOR LOWERING BLOOD GLUCOSE” (GENSIA, INC., priority 1989, dated 1990).

Where “and” joins values, the source holds several entries; their conditions need not be identical. Equal entries are not always repeated.

One assay has as its target adenosine kinase (Homo sapiens, UniProt P55263). The assay is described as follows: Inhibition of adenosine kinase. In kind it is biochemical.
The subject of the next assay is plasma glucose. The assay is described as follows: Plasma glucose in streptozocin-hyperglycemic rats. Format: in vivo. Conditions: rats made hyperglycemic with 50 mg/Kg streptozocin I.V.; doses as low as 100 mg/Kg I.P. As for the experimental part:
This hypoglycemic effect may contribute to the anti-ischemic properties of the molecule. Ribose is known to lower blood glucose in several animal species, including man, in relatively high doses (on the order of about 1000 mg/kg) by an unknown mechanism, possibly by inhibition of phosphoglucomutase. Accordingly, in theory, AICA riboside could cause hypoglycemia at extremely high doses ([…]) due to its ability to deliver ribose phosphate to cells. Other means of increasing intracellular ribose such as treatment with ribose itself or other nucleosides and prodrugs and analogs of them which can be metabolized to yield ribose-1-phosphate (which is converted ribose-5-phosphate) or ribose-5-phosphate may also lower blood sugar. […] At higher doses of AICA riboside, hypoglycemic seizures and death were induced in rabbits and mice. We have found rats to also be sensitive to the hypoglycemic effects of AICA riboside. Initial studies were performed using non-fasted rats (Sprague Dawley) and mice (Swiss-Webster). […] In non-fasted mice the decrease of glucose levels at this dose was greater, On the order of 30-50%. In both cases the hypoglycemia was statistically significant at the p <.01 level. […] In fasted mice, AICA riboside is potent in lowering blood glucose. (See e.g., Figure 6). In fasted mice AICA riboside may cause seizures at doses of 500 mg/Kg and above. […]

In assay [1] the test system is Blood glucose. Put plainly: Hypoglycemic effects of oral AICA riboside prodrugs. Format: in vivo, mice (Swiss Webster). The conditions noted are these: equimolar amounts. As for the experimental part: Male mice (Swiss Webster) were given equimolar amounts of either saline, AICA riboside, or compounds C1 or 10 of Table I orally. Blood glucose levels were measured one hour after administration by the glucose strip method (Chemstrip B.G.).

For the next assay, the system named is serum glucose. Put plainly: Plasma glucose levels in humans after intravenous infusion. Format: in vivo. As for the experimental part:
Healthy male volunteers were given a 30-minute intravenous infusion of AICA riboside at doses of 25 mg/kg, 50 mg/kg or 100 mg/kg.
Plasma glucose levels were monitored over a four hour period during and following the 30 minute infusion. Plasma glucose was measured by clinical chemistry autoanalyzer. The onset of the serum glucose lowering effect was evident by the end of the AICA riboside infusion period and plasma glucose reached a nadir approximately 30 minutes after the AICA riboside infusion was stopped. Recovery to euglycemic levels was complete by about three hours.

A further assay has as its system skin flap. The assay is described as follows: Protection against ischemic injury in skin flap model. In kind it is in vivo, rats. The conditions noted are these: skin flap viability 3 days post-surgery; pretreatment 45 minutes before surgery (SOD at time of surgery). As for the experimental part: Compounds were tested for their activity in protecting against ischemic injury in a skin flap model in rats.
Animals were pretreated with AICA riboside or AICA riboside plus adenosine deaminase (ADA) 45 minutes before surgery or, as a positive control, superoxide dismutase (SOD) was used at the time of surgery. A skin flap was raised on the abdomen of a rat for 6 hours and then sewn down. The percent viability of the flaps was evaluated at 3 days post-surgery.
This effect was not as pronounced in the presence of ADA, supporting the importance of adenosine's protective role in this setting.

Assay [2] concerns insulin. Put plainly: Plasma insulin levels in humans. In kind it is in vivo. Conditions: human subjects; precedes the drop in blood glucose. Here is the method: Human (male) volunteers were given a 15-minute intravenous infusion of 50 mg/kg AICA riboside. Plasma concentrations of immunoreactive insulin was determined by RIA during and following the administration for about 4 hours. (RIA kit, Amersham Clinical).

In assay [3] the test system is Blood Glucose. The assay is described as follows: Effect on blood glucose in rabbits (hexokinase procedure). Conditions: for Blood Glucose Change(+/-): 2H post-dose vs pre-dose; for Blood Glucose Change(+/-) / Blood Glucose 2H Post-Dose: individual rabbits. Format: in vivo, Rabbits (New Zealand White). Here is the method: Rabbits (New Zealand White) were given IV doses of AICA riboside, either 2 ml/kg (100 mg/kg) or 4 ml/kg (200 mg/kg). Blood was obtained by venipuncture before AICA riboside administration and two hours post-administration. Blood glucose concentrations before administration and two hours post-administration were measured by the hexokinase procedure (see Example K). The percent change (+/-) from pre-dose values are reported. Both dosage levels decreased blood glucose levels as compared with pre-AICA riboside administration levels.
AICA riboside (100, 250 or 500 mg/kg) or saline (as a control) was administered intraperitoneally to rats. Sixty minutes after AICA riboside administration, the rats were sacrificed by cervical dislocation. Blood glucose was determined spectrophotometrically measuring O.D. at 340 nm by the hexokinase method using the glucose SR Reagent (Medical Analysis Systems, Inc.) Blood lactate and pyruvate were determined spectrophotometrically measuring O.D. at 340 nm using lactate dehydrogenase in the presence of excess NAD or NADH, respectively.

Assay [4] deals with insulin. Put plainly: Blood insulin levels in rats. In kind it is in vivo. The conditions noted are these: high doses, early time points. An excerpt: This leads to investigation of the mechanism of AICA riboside induced hypoglycemia. […] This adenosine induced hyperglycemia is reversed by adenosine receptor antagonists (theophylline and sulphophenyltheophylline). Additionally, the AICA riboside-induced hypoglycemia is not blocked by theophylline. It is therefore concluded that the AICA riboside effect on plasma glucose is not mediated by adenosine. […] (See Figure 13).

Setting [5] is: healthy male volunteers, 30-minute intravenous infusion.
Where [6] appears, read: 2ml (100 mg/kg) IV, rabbit 10 not included.

Chain of adenosine kinase (P55263 whole entry, species assumed): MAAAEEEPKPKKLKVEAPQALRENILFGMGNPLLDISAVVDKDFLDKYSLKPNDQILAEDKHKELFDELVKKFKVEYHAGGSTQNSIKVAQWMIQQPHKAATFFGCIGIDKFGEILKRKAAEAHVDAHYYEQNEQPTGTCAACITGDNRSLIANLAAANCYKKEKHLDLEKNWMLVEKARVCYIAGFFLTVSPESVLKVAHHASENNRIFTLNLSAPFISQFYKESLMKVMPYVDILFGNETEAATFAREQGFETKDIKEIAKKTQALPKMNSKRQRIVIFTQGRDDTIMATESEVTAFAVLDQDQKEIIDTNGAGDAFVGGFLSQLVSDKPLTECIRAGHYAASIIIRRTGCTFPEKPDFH

As for `NC(=O)c1ncn([C@@H]2O[C@H](CO)[C@@H](O)[C@H]2O)c1N` [AICA riboside, 1-β-D-ribofuranosyl-5-aminoimidazole-4-carboxamide], the “inhibition of adenosine kinase” value on adenosine kinase is reported as “weak inhibitor”. Further, the “effect on plasma glucose” value in the assay on plasma glucose is “marked decreases in plasma glucose that approached euglycemic levels”. In the assay with Blood glucose [1], the “hypoglycemia after oral administration” value is on record as “did not produce detectable hypoglycemia”. Besides, in the assay on serum glucose (setting [5]), the “time of plasma glucose nadir after infusion was stopped” value is on record as “approximately 30 minutes” and the “time to recovery to euglycemic levels” value is on record as “about three”. For the same compound, the “effect on serum glucose” value in the assay with serum glucose (humans, 25 mg/kg intravenously over 30 minutes) was “significant reductions in serum glucose”. Further, in the assay on skin flap, the “% Viable” value came to 75%. In the assay on insulin [2], the serum insulin levels entry is “significant elevations of serum insulin levels”. Also, in the assay with Blood Glucose [3] (2ml (100 mg/kg) IV), the “Blood Glucose Change(+/-)” value is -25 mg% and +102* mg% and -24 mg% (2×) and -28 mg% and +10 mg% and -22 mg% and -23 mg% and -11 mg% and -53 mg%; the “Blood Glucose 2H Post-Dose” value is 93 mg% and 215* mg% and 87 mg% and 89 mg% (2×) and 122 mg% and 96 mg% and 98 mg% and 106 mg% and 99 mg%. Besides, in the assay with Blood Glucose [3] (setting [6]), the “Blood Glucose 2H Post-Dose, Mean” value came to 98 mg% and the “Blood Glucose Change(+/-), Mean” value is reported as -22 mg%. Further, in the assay on Blood Glucose [3] (4ml (200mg)/kg IV), the “Blood Glucose Change(+/-)” value is -14 mg% and -76 mg% and -42 mg% and -69 mg% and -59 mg%; the “Blood Glucose 2H Post-Dose” value is 100 mg% and 32** mg% and 79 mg% and 56 mg% and 62 mg%; the “Blood Glucose 2H Post-Dose, Mean” value was 66 mg%; the “Blood Glucose Change(+/-), Mean” value is reported as -52 mg%. In the assay on insulin [4], the blood insulin levels result is “suppress blood insulin levels”.
